Laboratory results reported in PubChem BioAssay (NCI).
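Method: 48-hour compound exposure of cells in 96-well plates, five concentrations, linear interpolation of endpoints. TGI: total growth inhibition.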

What follows are compounds tested on CCRF-CEM leukemia (assay: NCI-60 cell line screen, 48 h).
With `COC(=O)c1cc(/C=C\c2cc(OC)ccc2OC)ccc1OC` the TGI was > 100 µM.
For `CCOC(=O)C(C(=O)COC(C)(C)C)[C@@H]1C=C[C@H](OC(C)=O)C1` (stereo not given in full), the TGI was > 100 µM.
In the case of `CCOC(=O)CC(NC(=O)c1ccc(N=NN(C)C)cc1)C(=O)OCC` (stereo not given), the TGI is reported as > 100 µM.
In the case of `CN(C)CN(C)c1nc(N(C)C)nc(N(C)CN(C)C)n1`, the TGI is reported as 61.1 µM.
With `COc1ccc2c(c1)CCC/C2=N\NS(=O)(=O)c1c(C)cc(C)cc1C` the TGI was 63.7 µM.
With `CSCCCNC(=O)[C@H](CSC)NC(=O)c1csc(CCNC(=O)[C@@H](NSc2ccccc2[N+](=O)[O-])C(C)O)n1` (stereo not given in full) the TGI was > 100 µM.
With `CN(C)/C=C/C=C(/C=N/S(=O)(=O)C(F)(F)F)C1C=CN(S(=O)(=O)C(F)(F)F)C=C1` the TGI was 79.9 µM.
For `Cc1ccc(S(=O)(=O)Nn2c(O)c(C#N)c(-c3ccc([N+](=O)[O-])cc3)c(C#N)c2=O)cc1`, the TGI was > 100 µM.
Compound `CC(C)[Si](OCC1CC(C#N)OC(C)(C)O1)(C(C)C)C(C)C` (stereo not given) has a TGI of 39.1 µM.
With `CC(=O)Nc1ccc(-c2nnc(SCC(=O)Nc3ccc(Cl)cc3)o2)cc1` the TGI was 82.9 µM.
In the case of `Cc1ccccc1NC(=O)Cc1csc(N=Nc2c(O)[nH]c3ccccc23)n1`, the TGI is reported as > 100 µM.
With `FC(F)(F)c1ccc2nc(Sc3ccc4ccccc4c3)cnc2c1` the TGI was > 100 µM.
For `COc1ccc2c([nH]c3c(O)c(-c4c(C)cc5c([nH]c6c(CC=C(C)C)c(OC)ccc65)c4O)c(C)cc32)c1CC=C(C)C`, the TGI was > 100 µM.
With `COc1ccc(-n2cnc3c(NC(Cc4ccccc4)C(=O)O)ncnc32)cc1` (stereo not given) the TGI was > 100 µM.
In the case of `CC(=O)OCC1OC(n2c(-c3ccccc3)c(N=Nc3ccc(C)cc3)c(C)c(C#N)c2=S)C(OC(C)=O)C(OC(C)=O)C1OC(C)=O` (stereo not given), the TGI is reported as > 100 µM.
With `CN1CCC2(CC1)C(=NC1CCCCC1)NC(=O)N2c1ccccc1` the TGI was > 100 µM.
For `O=C(Nc1ccc(Cl)cc1)c1cc(S(=O)(=O)Nc2n[nH]c(=O)n2-c2ccccc2)c(S)cc1Cl`, the TGI was > 100 µM.
`Cc1csc(-n2c(C)nc3cc(Cl)ccc3c2=O)n1` was tested, and the TGI was > 100 µM.

These compounds were tested on EKVX NSCLC (assay: NCI-60 cell line screen, 48 h).
`O=C1CC(c2ccccc2)S(=O)c2ccccc2N1` (stereo not given) was tested, and the TGI was > 100 µM.
With `CC1(C)CC(=O)C2=C(C1)OC1(CC2c2ccc(Cl)cc2)CC(c2ccc(Cl)cc2)C2=C(CC(C)(C)CC2=O)O1` (stereo not given) the TGI was 34.4 µM.
`O=C(O)c1ccc(N/C(=C(/C(Cl)=C(Cl)Cl)[N+](=O)[O-])n2nnc3ccccc32)cc1` was tested, and the TGI was > 100 µM.
For `CCn1c2ccccc2c2cc(Nc3cc(C)[nH]c(=O)n3)ccc21`, the TGI was > 100 µM.
For `C(#Cc1ccccc1)SC1=C(c2ccccc2)S/C(=C(\SC#Cc2ccccc2)c2ccccc2)S1`, the TGI was > 100 µM.
`COC(=O)c1cc(/C=C\c2cc(OC)ccc2OC)ccc1OC` showed a TGI of 88.9 µM.
In the case of `CCOC(=O)C(C(=O)COC(C)(C)C)[C@@H]1C=C[C@H](OC(C)=O)C1` (stereo not given in full), the TGI is reported as > 100 µM.
In the case of `CCOC(=O)CC(NC(=O)c1ccc(N=NN(C)C)cc1)C(=O)OCC` (stereo not given), the TGI is reported as > 100 µM.
In the case of `CN(C)CN(C)c1nc(N(C)C)nc(N(C)CN(C)C)n1`, the TGI is reported as > 100 µM.
For `O=C(Cc1ccccc1)NN1C(=O)/C(=C\c2ccccc2O)SC1=Nc1ccccc1`, the TGI was > 100 µM.
With `COc1ccc2c(c1)CCC/C2=N\NS(=O)(=O)c1c(C)cc(C)cc1C` the TGI was 98.5 µM.
In the case of `CSCCCNC(=O)[C@H](CSC)NC(=O)c1csc(CCNC(=O)[C@@H](NSc2ccccc2[N+](=O)[O-])C(C)O)n1` (stereo not given in full), the TGI is reported as > 100 µM.
`CN(C)/C=C/C=C(/C=N/S(=O)(=O)C(F)(F)F)C1C=CN(S(=O)(=O)C(F)(F)F)C=C1` showed a TGI of 87.2 µM.
In the case of `Cc1ccc(S(=O)(=O)Nn2c(O)c(C#N)c(-c3ccc([N+](=O)[O-])cc3)c(C#N)c2=O)cc1`, the TGI is reported as > 100 µM.
`CC(C)[Si](OCC1CC(C#N)OC(C)(C)O1)(C(C)C)C(C)C` (stereo not given) showed a TGI of 66 µM.
`CC(=O)Nc1ccc(-c2nnc(SCC(=O)Nc3ccc(Cl)cc3)o2)cc1` showed a TGI of 38.4 µM.
With `Cc1ccccc1NC(=O)Cc1csc(N=Nc2c(O)[nH]c3ccccc23)n1` the TGI was > 100 µM.
With `FC(F)(F)c1ccc2nc(Sc3ccc4ccccc4c3)cnc2c1` the TGI was > 100 µM.
For `COc1ccc(-n2cnc3c(NC(Cc4ccccc4)C(=O)O)ncnc32)cc1` (stereo not given), the TGI was > 100 µM.
For `CN1CCC2(CC1)C(=NC1CCCCC1)NC(=O)N2c1ccccc1`, the TGI was > 100 µM.
With `CC(C)=NOC(=O)Nc1cccc2c1OCO2` the TGI was > 100 µM.
`Cc1ccc(/C=C2/N=C(N/N=C\c3ccccc3)NC2=O)cc1` was tested, and the TGI was > 100 µM.
With `O=C(Nc1ccc(Cl)cc1)c1cc(S(=O)(=O)Nc2n[nH]c(=O)n2-c2ccccc2)c(S)cc1Cl` the TGI was > 100 µM.
With `Cc1csc(-n2c(C)nc3cc(Cl)ccc3c2=O)n1` the TGI was 81.4 µM.

The compounds below were run on HL-60(TB) leukemia (assay: NCI-60 cell line screen, 48 h).
With `O=C1CC(c2ccccc2)S(=O)c2ccccc2N1` (stereo not given) the TGI was > 100 µM.
For `CC1(C)CC(=O)C2=C(C1)OC1(CC2c2ccc(Cl)cc2)CC(c2ccc(Cl)cc2)C2=C(CC(C)(C)CC2=O)O1` (stereo not given), the TGI was 24.1 µM.
With `O=c1c2ccccc2nc(-c2ccccc2)n1NC(=S)Nc1cccc(Cl)c1` the TGI was > 100 µM.
With `CCOC(=O)CC(NC(=O)c1ccc(N=NN(C)C)cc1)C(=O)OCC` (stereo not given) the TGI was > 100 µM.
For `CN(C)CN(C)c1nc(N(C)C)nc(N(C)CN(C)C)n1`, the TGI was 36.4 µM.
In the case of `CSCCCNC(=O)[C@H](CSC)NC(=O)c1csc(CCNC(=O)[C@@H](NSc2ccccc2[N+](=O)[O-])C(C)O)n1` (stereo not given in full), the TGI is reported as > 100 µM.
In the case of `CN(C)/C=C/C=C(/C=N/S(=O)(=O)C(F)(F)F)C1C=CN(S(=O)(=O)C(F)(F)F)C=C1`, the TGI is reported as 46.4 µM.
`Cc1ccc(S(=O)(=O)Nn2c(O)c(C#N)c(-c3ccc([N+](=O)[O-])cc3)c(C#N)c2=O)cc1` was tested, and the TGI was > 100 µM.
Work on `CC(C)[Si](OCC1CC(C#N)OC(C)(C)O1)(C(C)C)C(C)C` (stereo not given) yielded a TGI of 29.3 µM.
For `CC(=O)Nc1ccc(-c2nnc(SCC(=O)Nc3ccc(Cl)cc3)o2)cc1`, the TGI was 40.1 µM.
Compound `Cc1ccccc1NC(=O)Cc1csc(N=Nc2c(O)[nH]c3ccccc23)n1` has a TGI of 62.1 µM.
`FC(F)(F)c1ccc2nc(Sc3ccc4ccccc4c3)cnc2c1` was tested, and the TGI was > 100 µM.
For `COc1ccc2c([nH]c3c(O)c(-c4c(C)cc5c([nH]c6c(CC=C(C)C)c(OC)ccc65)c4O)c(C)cc32)c1CC=C(C)C`, the TGI was > 100 µM.
